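96-well plates; 48 h exposure; 5 concentrations. Endpoints by linear interpolation between flanking doses. Not reached: highest tested concentration assigned. TGI: total growth inhibition.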
How the values were obtained:
Assay in all cases: NCI-60 cell line screen, 48 h
UACC-62 melanoma = test system: UACC-62 melanoma
SF-295 CNS = test system: SF-295 CNS
HOP-62 NSCLC = test system: HOP-62 NSCLC
OVCAR-3 ovarian = test system: OVCAR-3 ovarian
SK-MEL-2 melanoma = test system: SK-MEL-2 melanoma
OVCAR-8 ovarian = test system: OVCAR-8 ovarian
OVCAR-5 ovarian = test system: OVCAR-5 ovarian
SF-268 CNS = test system: SF-268 CNS
RPMI-8226 leukemia = test system: RPMI-8226 leukemia
COLO 205 colon = test system: COLO 205 colon
EKVX NSCLC = test system: EKVX NSCLC
786-0 renal = test system: 786-0 renal
PC-3 prostate = test system: PC-3 prostate
NCI/ADR-RES ovarian = test system: NCI/ADR-RES ovarian
A549 NSCLC = test system: A549 NSCLC
T-47D breast = test system: T-47D breast
NCI-H226 lung = test system: NCI-H226 lung
SNB-75 CNS = test system: SNB-75 CNS
RXF 393 renal = test system: RXF 393 renal
SNB-19 CNS = test system: SNB-19 CNS

For `O=C(Nc1c(C(F)(F)F)cc(-c2ccccc2)[nH]c1=O)N1CCOCC1`, the TGI (UACC-62 melanoma) was > 100 µM, the TGI (SF-295 CNS) was > 100 µM and the TGI (HOP-62 NSCLC) was > 100 µM. For the same compound, the TGI (OVCAR-3 ovarian) was > 100 µM, the TGI (SK-MEL-2 melanoma) was > 100 µM and the TGI (OVCAR-8 ovarian) was > 100 µM. For the same compound, the TGI (OVCAR-5 ovarian) was > 100 µM, the TGI (SF-268 CNS) was > 100 µM and the TGI (RPMI-8226 leukemia) was > 100 µM. For the same compound, the TGI (COLO 205 colon) was > 100 µM, the TGI (EKVX NSCLC) was > 100 µM and the TGI (786-0 renal) was > 100 µM. The TGI (PC-3 prostate) was > 100 µM, the TGI (NCI/ADR-RES ovarian) was > 100 µM and the TGI (A549 NSCLC) was > 100 µM. For the same compound, the TGI (T-47D breast) was > 100 µM, the TGI (NCI-H226 lung) was > 100 µM and the TGI (SNB-75 CNS) was > 100 µM. The TGI (RXF 393 renal) was > 100 µM and the TGI (SNB-19 CNS) was > 100 µM.

`CCCCOC(=O)NC(Nc1cccc(C(F)(F)F)c1)(C(F)(F)F)C(F)(F)F` was tested, and the TGI (UACC-62 melanoma) was > 100 µM, the TGI (SF-295 CNS) was > 100 µM and the TGI (HOP-62 NSCLC) was > 100 µM. The TGI (OVCAR-3 ovarian) was > 100 µM, the TGI (SK-MEL-2 melanoma) was 99.1 µM and the TGI (OVCAR-8 ovarian) was > 100 µM. For the same compound, the TGI (OVCAR-5 ovarian) was > 100 µM, the TGI (SF-268 CNS) was > 100 µM and the TGI (RPMI-8226 leukemia) was 61.5 µM. The TGI (COLO 205 colon) was > 100 µM, the TGI (EKVX NSCLC) was > 100 µM and the TGI (786-0 renal) was > 100 µM. The TGI (PC-3 prostate) was > 100 µM, the TGI (NCI/ADR-RES ovarian) was > 100 µM and the TGI (A549 NSCLC) was > 100 µM. For the same compound, the TGI (T-47D breast) was 45.3 µM, the TGI (NCI-H226 lung) was > 100 µM and the TGI (SNB-75 CNS) was > 100 µM. For the same compound, the TGI (RXF 393 renal) was > 100 µM and the TGI (SNB-19 CNS) was > 100 µM.

With `CC(C)OP(=O)(OC(C)C)/C(C#N)=C/c1ccco1` the TGI (UACC-62 melanoma) was > 100 µM, the TGI (SF-295 CNS) was > 100 µM and the TGI (HOP-62 NSCLC) was > 100 µM. The TGI (OVCAR-3 ovarian) was > 100 µM, the TGI (SK-MEL-2 melanoma) was > 100 µM and the TGI (OVCAR-8 ovarian) was > 100 µM. The TGI (OVCAR-5 ovarian) was > 100 µM, the TGI (SF-268 CNS) was > 100 µM and the TGI (RPMI-8226 leukemia) was > 100 µM. For the same compound, the TGI (COLO 205 colon) was > 100 µM, the TGI (EKVX NSCLC) was > 100 µM and the TGI (786-0 renal) was > 100 µM. The TGI (PC-3 prostate) was > 100 µM, the TGI (NCI/ADR-RES ovarian) was > 100 µM and the TGI (A549 NSCLC) was > 100 µM. The TGI (T-47D breast) was > 100 µM, the TGI (NCI-H226 lung) was > 100 µM and the TGI (SNB-75 CNS) was > 100 µM. For the same compound, the TGI (RXF 393 renal) was > 100 µM and the TGI (SNB-19 CNS) was > 100 µM.

With `CCCC(=O)O[C@H]1C=C2C[C@@]34SS[C@]5(CC6=C[C@H](OC(C)=O)[C@@H]7O[C@@H]7[C@H]6N5C3=O)C(=O)N4[C@@H]2[C@H]2O[C@H]21` the TGI (UACC-62 melanoma) was 0.0851 µM, the TGI (SF-295 CNS) was 1.35 µM and the TGI (HOP-62 NSCLC) was 0.0892 µM. The TGI (OVCAR-3 ovarian) was 0.0314 µM, the TGI (SK-MEL-2 melanoma) was 0.296 µM and the TGI (OVCAR-8 ovarian) was 0.907 µM. The TGI (OVCAR-5 ovarian) was 0.251 µM, the TGI (SF-268 CNS) was 0.119 µM and the TGI (RPMI-8226 leukemia) was 2.29 µM. For the same compound, the TGI (COLO 205 colon) was 0.0637 µM, the TGI (EKVX NSCLC) was 0.0294 µM and the TGI (786-0 renal) was 0.00841 µM. It also gave a TGI (PC-3 prostate) of 0.0611 µM, a TGI (NCI/ADR-RES ovarian) of 0.442 µM and a TGI (A549 NSCLC) of 1.68 µM. The TGI (T-47D breast) was 0.605 µM, the TGI (NCI-H226 lung) was 1.77 µM and the TGI (SNB-75 CNS) was 0.331 µM. The TGI (RXF 393 renal) was 0.0713 µM and the TGI (SNB-19 CNS) was 1.43 µM.

For `Cc1nn(C(=O)c2ccncc2)c2c1C(c1ccccc1)SC(N)=N2` (stereo not given), the TGI (UACC-62 melanoma) was > 10 µM, the TGI (SF-295 CNS) was > 10 µM and the TGI (HOP-62 NSCLC) was > 10 µM. For the same compound, the TGI (OVCAR-3 ovarian) was > 10 µM, the TGI (SK-MEL-2 melanoma) was > 10 µM and the TGI (OVCAR-8 ovarian) was > 10 µM. For the same compound, the TGI (OVCAR-5 ovarian) was > 10 µM, the TGI (SF-268 CNS) was > 10 µM and the TGI (RPMI-8226 leukemia) was > 10 µM. The TGI (COLO 205 colon) was > 10 µM, the TGI (EKVX NSCLC) was > 10 µM and the TGI (786-0 renal) was > 10 µM. The TGI (PC-3 prostate) was > 10 µM, the TGI (NCI/ADR-RES ovarian) was > 10 µM and the TGI (A549 NSCLC) was > 10 µM. The TGI (T-47D breast) was > 10 µM, the TGI (NCI-H226 lung) was > 10 µM and the TGI (SNB-75 CNS) was > 10 µM. For the same compound, the TGI (RXF 393 renal) was > 10 µM and the TGI (SNB-19 CNS) was > 10 µM.

Work on `O=C(/C=C1\C[C@H]2C=Nc3ccccc3C(=O)N2C1)NCCCCNC(=O)/C=C1\C[C@H]2C=Nc3ccccc3C(=O)N2C1` yielded a TGI (UACC-62 melanoma) of 29 µM, a TGI (SF-295 CNS) of 35.4 µM and a TGI (HOP-62 NSCLC) of 38.5 µM. For the same compound, the TGI (OVCAR-3 ovarian) was 36.3 µM, the TGI (SK-MEL-2 melanoma) was 29.2 µM and the TGI (OVCAR-8 ovarian) was 9.76 µM. It also gave a TGI (OVCAR-5 ovarian) of 34.4 µM, a TGI (SF-268 CNS) of 25 µM and a TGI (RPMI-8226 leukemia) of 18.6 µM. For the same compound, the TGI (COLO 205 colon) was 14.8 µM, the TGI (EKVX NSCLC) was 33.7 µM and the TGI (786-0 renal) was 3.32 µM. It also gave a TGI (PC-3 prostate) of 27.7 µM, a TGI (NCI/ADR-RES ovarian) of 47.1 µM and a TGI (A549 NSCLC) of 49.1 µM. It also gave a TGI (T-47D breast) of 22.3 µM, a TGI (NCI-H226 lung) of 59.5 µM and a TGI (SNB-75 CNS) of 31.9 µM. The TGI (RXF 393 renal) was 19.2 µM and the TGI (SNB-19 CNS) was 31.8 µM.

With `CC(C)(C)c1cc2c(O)c(c1)Cc1cc(C(C#N)(Cc3ccc4ccccc4c3)Cc3ccc4ccccc4c3)cc(c1O)Cc1cc(C(C)(C)C)cc(c1O)Cc1cc(C(C#N)(Cc3ccc4ccccc4c3)Cc3ccc4ccccc4c3)cc(c1O)C2` the TGI (UACC-62 melanoma) was > 100 µM, the TGI (SF-295 CNS) was > 100 µM and the TGI (HOP-62 NSCLC) was > 100 µM. The TGI (OVCAR-3 ovarian) was > 100 µM, the TGI (SK-MEL-2 melanoma) was > 100 µM and the TGI (OVCAR-8 ovarian) was > 100 µM. The TGI (OVCAR-5 ovarian) was > 100 µM, the TGI (SF-268 CNS) was > 100 µM and the TGI (RPMI-8226 leukemia) was > 100 µM. For the same compound, the TGI (COLO 205 colon) was > 100 µM, the TGI (EKVX NSCLC) was > 100 µM and the TGI (786-0 renal) was > 100 µM. The TGI (PC-3 prostate) was > 100 µM, the TGI (NCI/ADR-RES ovarian) was > 100 µM and the TGI (A549 NSCLC) was > 100 µM. For the same compound, the TGI (T-47D breast) was > 100 µM, the TGI (NCI-H226 lung) was > 100 µM and the TGI (SNB-75 CNS) was > 100 µM. The TGI (RXF 393 renal) was > 100 µM and the TGI (SNB-19 CNS) was > 100 µM.

In the case of `O=C1O[C@H]2[C@H](O)[C@@H](OC(=O)c3cc(O)c(O)c4c3[C@@H]3C1=CC(=O)C(O)(O)C3(O)O4)[C@H](OC(=O)c1cc(O)c(O)c(O)c1)O[C@@H]2CO` (stereo not given in full), the TGI (UACC-62 melanoma) is reported as > 100 µM, the TGI (SF-295 CNS) is reported as > 100 µM and the TGI (HOP-62 NSCLC) is reported as > 100 µM. The TGI (OVCAR-3 ovarian) was > 100 µM, the TGI (SK-MEL-2 melanoma) was > 100 µM and the TGI (OVCAR-8 ovarian) was > 100 µM. For the same compound, the TGI (OVCAR-5 ovarian) was > 100 µM, the TGI (SF-268 CNS) was > 100 µM and the TGI (RPMI-8226 leukemia) was > 100 µM. For the same compound, the TGI (COLO 205 colon) was > 100 µM, the TGI (EKVX NSCLC) was > 100 µM and the TGI (786-0 renal) was > 100 µM. The TGI (PC-3 prostate) was > 100 µM, the TGI (NCI/ADR-RES ovarian) was > 100 µM and the TGI (A549 NSCLC) was > 100 µM. For the same compound, the TGI (T-47D breast) was > 100 µM, the TGI (NCI-H226 lung) was > 100 µM and the TGI (SNB-75 CNS) was > 100 µM. For the same compound, the TGI (RXF 393 renal) was > 100 µM and the TGI (SNB-19 CNS) was > 100 µM.
